Assay results as given in the NIST ThermoML archive (doi:10.1016/j.tca.2016.01.016).
Where “and” joins values, the source holds several entries; their conditions need not be identical. Equal values may be shown once.

Experiment: molar heat capacity at constant pressure
Conditions: 101.33 kPa, Crystal, Small sample (50 mg) DSC

O=P([O-])([O-])[O-].[Dy+3] [dysprosium(III) phosphate]
Conditions | molar heat capacity at constant pressure
348.15 K | 117.5 J/K/mol and 118.3 J/K/mol
353.15 K | 119.1 J/K/mol and 119.4 J/K/mol
358.15 K | 120.4 J/K/mol and 120.4 J/K/mol
363.15 K | 121.5 J/K/mol and 121.3 J/K/mol
368.15 K | 122.5 J/K/mol and 122.3 J/K/mol
373.15 K | 123.3 J/K/mol and 123.2 J/K/mol
378.15 K | 124.1 J/K/mol and 124.1 J/K/mol
383.15 K | 124.9 J/K/mol and 124.9 J/K/mol
388.15 K | 125.7 J/K/mol and 125.7 J/K/mol
393.15 K | 126.4 J/K/mol and 126.5 J/K/mol
398.15 K | 127.3 J/K/mol and 127.3 J/K/mol
403.15 K | 128.1 J/K/mol and 128 J/K/mol
408.15 K | 128.9 J/K/mol and 128.7 J/K/mol
413.15 K | 129.6 J/K/mol and 129.4 J/K/mol
418.15 K | 130.4 J/K/mol and 130.1 J/K/mol
423.15 K | 131 J/K/mol and 130.8 J/K/mol
428.15 K | 131.7 J/K/mol and 131.4 J/K/mol
433.15 K | 132.3 J/K/mol and 132 J/K/mol
438.15 K | 132.8 J/K/mol and 132.6 J/K/mol
443.15 K | 133.4 J/K/mol and 133.2 J/K/mol
448.15 K | 133.9 J/K/mol and 133.8 J/K/mol
453.15 K | 134.5 J/K/mol and 134.3 J/K/mol
458.15 K | 135 J/K/mol and 134.9 J/K/mol
463.15 K | 135.5 J/K/mol and 135.4 J/K/mol
468.15 K | 136.1 J/K/mol and 135.9 J/K/mol
473.15 K | 136.6 J/K/mol and 136.4 J/K/mol
478.15 K | 137 J/K/mol and 136.9 J/K/mol
483.15 K | 137.4 J/K/mol and 137.4 J/K/mol
488.15 K | 137.9 J/K/mol and 137.8 J/K/mol
493.15 K | 138.3 J/K/mol and 138.3 J/K/mol
498.15 K | 138.7 J/K/mol and 138.7 J/K/mol
503.15 K | 139.1 J/K/mol and 139.1 J/K/mol
508.15 K | 139.5 J/K/mol and 139.5 J/K/mol
513.15 K | 139.9 J/K/mol and 140 J/K/mol
518.15 K | 140.3 J/K/mol and 140.3 J/K/mol
523.15 K | 140.7 J/K/mol and 140.7 J/K/mol
528.15 K | 141 J/K/mol and 141.1 J/K/mol
533.15 K | 141.3 J/K/mol and 141.5 J/K/mol
538.15 K | 141.6 J/K/mol and 141.9 J/K/mol
543.15 K | 142 J/K/mol and 142.2 J/K/mol
548.15 K | 142.4 J/K/mol and 142.6 J/K/mol
553.15 K | 142.7 J/K/mol and 142.9 J/K/mol
558.15 K | 143 J/K/mol and 143.2 J/K/mol
563.15 K | 143.4 J/K/mol and 143.6 J/K/mol
568.15 K | 143.7 J/K/mol and 143.9 J/K/mol
573.15 K | 143.9 J/K/mol and 144.2 J/K/mol
578.15 K | 144.3 J/K/mol and 144.5 J/K/mol
583.15 K | 144.6 J/K/mol and 144.8 J/K/mol
588.15 K | 144.8 J/K/mol and 145.1 J/K/mol
593.15 K | 145.1 J/K/mol and 145.4 J/K/mol
598.15 K | 145.3 J/K/mol and 145.7 J/K/mol
603.15 K | 145.6 J/K/mol and 145.9 J/K/mol
608.15 K | 145.9 J/K/mol and 146.2 J/K/mol
613.15 K | 146.1 J/K/mol and 146.5 J/K/mol
618.15 K | 146.4 J/K/mol and 146.8 J/K/mol
623.15 K | 146.7 J/K/mol and 147 J/K/mol
628.15 K | 147 J/K/mol and 147.3 J/K/mol
633.15 K | 147.3 J/K/mol and 147.5 J/K/mol
638.15 K | 147.5 J/K/mol and 147.8 J/K/mol
643.15 K | 147.8 J/K/mol and 148 J/K/mol
648.15 K | 148 J/K/mol and 148.2 J/K/mol
653.15 K | 148.2 J/K/mol and 148.5 J/K/mol
658.15 K | 148.5 J/K/mol and 148.7 J/K/mol
663.15 K | 148.8 J/K/mol and 148.9 J/K/mol
668.15 K | 149.1 J/K/mol and 149.1 J/K/mol
673.15 K | 149.3 J/K/mol and 149.3 J/K/mol
678.15 K | 149.6 J/K/mol and 149.6 J/K/mol
683.15 K | 149.9 J/K/mol and 149.8 J/K/mol
688.15 K | 150.1 J/K/mol and 150 J/K/mol
693.15 K | 150.4 J/K/mol and 150.2 J/K/mol
698.15 K | 150.7 J/K/mol and 150.4 J/K/mol
703.15 K | 150.9 J/K/mol and 150.6 J/K/mol
708.15 K | 151.1 J/K/mol and 150.8 J/K/mol
713.15 K | 151.4 J/K/mol and 151 J/K/mol
718.15 K | 151.6 J/K/mol and 151.1 J/K/mol
723.15 K | 151.8 J/K/mol and 151.3 J/K/mol
728.15 K | 152 J/K/mol and 151.5 J/K/mol
733.15 K | 152.1 J/K/mol and 151.7 J/K/mol
738.15 K | 152.3 J/K/mol and 151.9 J/K/mol
743.15 K | 152.5 J/K/mol and 152 J/K/mol
748.15 K | 152.7 J/K/mol and 152.2 J/K/mol
753.15 K | 152.9 J/K/mol and 152.4 J/K/mol
758.15 K | 152.9 J/K/mol and 152.5 J/K/mol
763.15 K | 153.1 J/K/mol and 152.7 J/K/mol
768.15 K | 153.3 J/K/mol and 152.9 J/K/mol
773.15 K | 153.4 J/K/mol and 153 J/K/mol
778.15 K | 153.4 J/K/mol and 153.2 J/K/mol
783.15 K | 153.6 J/K/mol and 153.3 J/K/mol
788.15 K | 153.5 J/K/mol
793.15 K | 153.7 J/K/mol and 153.6 J/K/mol
798.15 K | 153.8 J/K/mol
803.15 K | 154 J/K/mol and 153.9 J/K/mol
808.15 K | 154.1 J/K/mol
813.15 K | 154.2 J/K/mol
818.15 K | 154.3 J/K/mol and 154.4 J/K/mol
823.15 K | 154.4 J/K/mol and 154.5 J/K/mol
828.15 K | 154.5 J/K/mol and 154.6 J/K/mol
833.15 K | 154.5 J/K/mol and 154.8 J/K/mol
838.15 K | 154.6 J/K/mol and 154.9 J/K/mol
843.15 K | 154.8 J/K/mol and 155 J/K/mol
848.15 K | 154.9 J/K/mol and 155.2 J/K/mol
853.15 K | 154.9 J/K/mol and 155.3 J/K/mol
858.15 K | 155 J/K/mol and 155.4 J/K/mol
863.15 K | 155.1 J/K/mol and 155.6 J/K/mol
868.15 K | 155.2 J/K/mol and 155.7 J/K/mol
